# Assay results: PubChem BioAssay (NCI)
#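 Where inhibition never reached the appropriate level, the endpoint shown equals the highest concentration tested. Otherwise, values were interpolated linearly from a five-concentration, 48-hour dose response in 96-well plates. The concentration for full growth arrest is given as TGI.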
# Key:
# Experiment in all cases: NCI anticancer screen, dose series, 48 h
# 786-0 renal = tested on: 786-0 renal
# A498 renal = tested on: A498 renal
# A549 NSCLC = tested on: A549 NSCLC
# ACHN renal = tested on: ACHN renal
# BT-549 breast = tested on: BT-549 breast
# CAKI-1 renal = tested on: CAKI-1 renal
# CCRF-CEM leukemia = tested on: CCRF-CEM leukemia
# COLO 205 colon = tested on: COLO 205 colon
# DU-145 prostate = tested on: DU-145 prostate
# EKVX NSCLC = tested on: EKVX NSCLC
# HCC-2998 colon = tested on: HCC-2998 colon
# HCT-116 colon = tested on: HCT-116 colon
# HCT-15 colon = tested on: HCT-15 colon
# HOP-62 NSCLC = tested on: HOP-62 NSCLC
# HS 578T breast = tested on: HS 578T breast
# HT29 colon = tested on: HT29 colon
# IGROV1 ovarian = tested on: IGROV1 ovarian
# K-562 leukemia = tested on: K-562 leukemia
# KM12 colon = tested on: KM12 colon
# LOX IMVI melanoma = tested on: LOX IMVI melanoma
# M14 melanoma = tested on: M14 melanoma
# MALME-3M melanoma = tested on: MALME-3M melanoma
# MCF7 breast = tested on: MCF7 breast
# MDA-MB-231 breast = tested on: MDA-MB-231 breast
# MDA-MB-435 = tested on: MDA-MB-435
# MDA-N = tested on: MDA-N
# MOLT-4 leukemia = tested on: MOLT-4 leukemia
# NCI-H226 lung = tested on: NCI-H226 lung
# NCI-H460 lung = tested on: NCI-H460 lung
# NCI-H522 lung = tested on: NCI-H522 lung
# NCI/ADR-RES ovarian = tested on: NCI/ADR-RES ovarian
# OVCAR-3 ovarian = tested on: OVCAR-3 ovarian
# OVCAR-4 ovarian = tested on: OVCAR-4 ovarian
# OVCAR-5 ovarian = tested on: OVCAR-5 ovarian
# OVCAR-8 ovarian = tested on: OVCAR-8 ovarian
# PC-3 prostate = tested on: PC-3 prostate
# RPMI-8226 leukemia = tested on: RPMI-8226 leukemia
# RXF 393 renal = tested on: RXF 393 renal
# SF-268 CNS = tested on: SF-268 CNS
# SF-295 CNS = tested on: SF-295 CNS
# SK-MEL-2 melanoma = tested on: SK-MEL-2 melanoma
# SK-MEL-28 melanoma = tested on: SK-MEL-28 melanoma
# SK-MEL-5 melanoma = tested on: SK-MEL-5 melanoma
# SK-OV-3 ovarian = tested on: SK-OV-3 ovarian
# SN12C renal = tested on: SN12C renal
# SNB-19 CNS = tested on: SNB-19 CNS
# SNB-75 CNS = tested on: SNB-75 CNS
# SR leukemia = tested on: SR leukemia
# SW-620 colon = tested on: SW-620 colon
# T-47D breast = tested on: T-47D breast
# TK-10 renal = tested on: TK-10 renal
# U251 CNS = tested on: U251 CNS
# UACC-257 melanoma = tested on: UACC-257 melanoma
# UACC-62 melanoma = tested on: UACC-62 melanoma
# UO-31 renal = tested on: UO-31 renal
# HL-60(TB) leukemia = tested on: HL-60(TB) leukemia
# NCI-H23 lung = tested on: NCI-H23 lung
# SF-539 CNS = tested on: SF-539 CNS
# HOP-92 NSCLC = tested on: HOP-92 NSCLC
smiles,measurement,setting,value
CCc1n[nH]c(=O)n1N1C(=O)CCC1=O,TGI,786-0 renal,> 100 µM
same,TGI,A498 renal,> 100 µM
same,TGI,A549 NSCLC,> 100 µM
same,TGI,ACHN renal,> 100 µM
same,TGI,BT-549 breast,> 100 µM
same,TGI,CAKI-1 renal,> 100 µM
same,TGI,CCRF-CEM leukemia,> 100 µM
same,TGI,COLO 205 colon,> 100 µM
same,TGI,DU-145 prostate,> 100 µM
same,TGI,EKVX NSCLC,> 100 µM
same,TGI,HCC-2998 colon,> 100 µM
same,TGI,HCT-116 colon,> 100 µM
same,TGI,HCT-15 colon,> 100 µM
same,TGI,HOP-62 NSCLC,> 100 µM
same,TGI,HS 578T breast,> 100 µM
same,TGI,HT29 colon,> 100 µM
same,TGI,IGROV1 ovarian,> 100 µM
same,TGI,K-562 leukemia,> 100 µM
same,TGI,KM12 colon,> 100 µM
same,TGI,LOX IMVI melanoma,> 100 µM
same,TGI,M14 melanoma,> 100 µM
same,TGI,MALME-3M melanoma,> 100 µM
same,TGI,MCF7 breast,> 100 µM
same,TGI,MDA-MB-231 breast,> 100 µM
same,TGI,MDA-MB-435,> 100 µM
same,TGI,MDA-N,> 100 µM
same,TGI,MOLT-4 leukemia,> 100 µM
same,TGI,NCI-H226 lung,> 100 µM
same,TGI,NCI-H460 lung,> 100 µM
same,TGI,NCI-H522 lung,> 100 µM
same,TGI,NCI/ADR-RES ovarian,> 100 µM
same,TGI,OVCAR-3 ovarian,> 100 µM
same,TGI,OVCAR-4 ovarian,> 100 µM
same,TGI,OVCAR-5 ovarian,> 100 µM
same,TGI,OVCAR-8 ovarian,> 100 µM
same,TGI,PC-3 prostate,> 100 µM
same,TGI,RPMI-8226 leukemia,> 100 µM
same,TGI,RXF 393 renal,> 100 µM
same,TGI,SF-268 CNS,> 100 µM
same,TGI,SF-295 CNS,> 100 µM
same,TGI,SK-MEL-2 melanoma,> 100 µM
same,TGI,SK-MEL-28 melanoma,> 100 µM
same,TGI,SK-MEL-5 melanoma,> 100 µM
same,TGI,SK-OV-3 ovarian,> 100 µM
same,TGI,SN12C renal,> 100 µM
same,TGI,SNB-19 CNS,> 100 µM
same,TGI,SNB-75 CNS,> 100 µM
same,TGI,SR leukemia,> 100 µM
same,TGI,SW-620 colon,> 100 µM
same,TGI,T-47D breast,> 100 µM
same,TGI,TK-10 renal,> 100 µM
same,TGI,U251 CNS,> 100 µM
same,TGI,UACC-257 melanoma,> 100 µM
same,TGI,UACC-62 melanoma,> 100 µM
same,TGI,UO-31 renal,> 100 µM
Sc1ccc2ccccc2c1CNCc1ccccc1,TGI,786-0 renal,37 µM
same,TGI,A498 renal,95.5 µM
same,TGI,A549 NSCLC,> 100 µM
same,TGI,ACHN renal,57.9 µM
same,TGI,BT-549 breast,48.7 µM
same,TGI,CAKI-1 renal,43.8 µM
same,TGI,CCRF-CEM leukemia,54.1 µM
same,TGI,COLO 205 colon,28.2 µM
same,TGI,DU-145 prostate,69.3 µM
same,TGI,EKVX NSCLC,78.3 µM
same,TGI,HCC-2998 colon,> 100 µM
same,TGI,HCT-116 colon,33.4 µM
same,TGI,HCT-15 colon,88.6 µM
same,TGI,HL-60(TB) leukemia,26.9 µM
same,TGI,HOP-62 NSCLC,34.9 µM
same,TGI,HS 578T breast,67.2 µM
same,TGI,HT29 colon,> 100 µM
same,TGI,IGROV1 ovarian,6.97 µM
same,TGI,K-562 leukemia,39 µM
same,TGI,KM12 colon,30.8 µM
same,TGI,LOX IMVI melanoma,18.6 µM
same,TGI,M14 melanoma,27.6 µM
same,TGI,MALME-3M melanoma,78.5 µM
same,TGI,MCF7 breast,> 100 µM
same,TGI,MDA-MB-231 breast,43.9 µM
same,TGI,MDA-MB-435,29.9 µM
same,TGI,MDA-N,37.6 µM
same,TGI,MOLT-4 leukemia,6.59 µM
same,TGI,NCI-H226 lung,12.3 µM
same,TGI,NCI-H23 lung,59.7 µM
same,TGI,NCI-H460 lung,> 100 µM
same,TGI,NCI-H522 lung,18.3 µM
same,TGI,NCI/ADR-RES ovarian,98.1 µM
same,TGI,OVCAR-3 ovarian,31.4 µM
same,TGI,OVCAR-4 ovarian,40.6 µM
same,TGI,OVCAR-5 ovarian,34 µM
same,TGI,OVCAR-8 ovarian,65.8 µM
same,TGI,PC-3 prostate,> 100 µM
same,TGI,RPMI-8226 leukemia,31.9 µM
same,TGI,RXF 393 renal,26 µM
same,TGI,SF-268 CNS,30.3 µM
same,TGI,SF-295 CNS,47.3 µM
same,TGI,SF-539 CNS,29.3 µM
same,TGI,SK-MEL-2 melanoma,45.5 µM
same,TGI,SK-MEL-28 melanoma,69.7 µM
same,TGI,SK-MEL-5 melanoma,25.3 µM
same,TGI,SK-OV-3 ovarian,41.1 µM
same,TGI,SN12C renal,25.7 µM
same,TGI,SNB-19 CNS,> 100 µM
same,TGI,SNB-75 CNS,44.2 µM
same,TGI,SR leukemia,15.4 µM
same,TGI,SW-620 colon,> 100 µM
same,TGI,T-47D breast,> 100 µM
same,TGI,TK-10 renal,> 100 µM
same,TGI,U251 CNS,30.8 µM
same,TGI,UACC-257 melanoma,> 100 µM
same,TGI,UACC-62 melanoma,28.6 µM
same,TGI,UO-31 renal,26.9 µM
C=C1[C@H](OC(=O)C(C)C)[C@@H](OC(C)=O)[C@@H](OC(C)=O)C(C)(C)[C@@H]2O[C@H]2[C@@H](C)C(=O)[C@@]2(OC(C)=O)C[C@@](C)(OC(C)=O)[C@H](OC(C)=O)[C@@H]2[C@H]1OC(C)=O,TGI,786-0 renal,> 100 µM
same,TGI,A498 renal,> 100 µM
same,TGI,A549 NSCLC,> 100 µM
same,TGI,ACHN renal,> 100 µM
same,TGI,BT-549 breast,> 100 µM
same,TGI,CAKI-1 renal,> 100 µM
same,TGI,CCRF-CEM leukemia,> 100 µM
same,TGI,COLO 205 colon,> 100 µM
same,TGI,DU-145 prostate,> 100 µM
same,TGI,EKVX NSCLC,> 100 µM
same,TGI,HCC-2998 colon,> 100 µM
same,TGI,HCT-116 colon,> 100 µM
same,TGI,HCT-15 colon,> 100 µM
same,TGI,HL-60(TB) leukemia,> 100 µM
same,TGI,HOP-62 NSCLC,> 100 µM
same,TGI,HOP-92 NSCLC,> 100 µM
same,TGI,HS 578T breast,> 100 µM
same,TGI,HT29 colon,> 100 µM
same,TGI,IGROV1 ovarian,> 100 µM
same,TGI,K-562 leukemia,> 100 µM
same,TGI,KM12 colon,> 100 µM
same,TGI,LOX IMVI melanoma,> 100 µM
same,TGI,M14 melanoma,> 100 µM
same,TGI,MALME-3M melanoma,> 100 µM
same,TGI,MCF7 breast,> 100 µM
same,TGI,MDA-MB-231 breast,> 100 µM
same,TGI,MDA-MB-435,> 100 µM
same,TGI,MDA-N,> 100 µM
same,TGI,MOLT-4 leukemia,> 100 µM
same,TGI,NCI-H226 lung,> 100 µM
same,TGI,NCI-H23 lung,> 100 µM
same,TGI,NCI-H460 lung,> 100 µM
same,TGI,NCI-H522 lung,> 100 µM
same,TGI,NCI/ADR-RES ovarian,> 100 µM
same,TGI,OVCAR-3 ovarian,> 100 µM
same,TGI,OVCAR-4 ovarian,> 100 µM
same,TGI,OVCAR-5 ovarian,> 100 µM
same,TGI,OVCAR-8 ovarian,> 100 µM
same,TGI,PC-3 prostate,> 100 µM
same,TGI,RPMI-8226 leukemia,> 100 µM
same,TGI,SF-268 CNS,> 100 µM
same,TGI,SF-295 CNS,> 100 µM
same,TGI,SF-539 CNS,> 100 µM
same,TGI,SK-MEL-2 melanoma,> 100 µM
same,TGI,SK-MEL-5 melanoma,> 100 µM
same,TGI,SK-OV-3 ovarian,> 100 µM
same,TGI,SN12C renal,> 100 µM
same,TGI,SNB-19 CNS,> 100 µM
same,TGI,SR leukemia,> 100 µM
same,TGI,SW-620 colon,> 100 µM
same,TGI,T-47D breast,> 100 µM
same,TGI,TK-10 renal,> 100 µM
same,TGI,U251 CNS,> 100 µM
same,TGI,UACC-257 melanoma,> 100 µM
same,TGI,UACC-62 melanoma,> 100 µM
same,TGI,UO-31 renal,> 100 µM
